US10501464B2, “7-oxo-6-(sulfooxy)-1,6-diazabicyclo[3.2.1]octane-2-carboxamide containing compounds and their use in treating bacterial infections” (WOCKHARDT LIMITED, priority 2015, dated 2019)
Read-outs that look alike come from different tables or passages of the source.

Experiments:
Assay in all cases: Antibacterial activity, MIC by agar dilution (CLSI)
Type in all cases: cell-based
E. coli M 49 = conditions: compound tested alone
Procedure, shortened: (§1)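 Mueller Hinton agar with doubling dilutions of compound was spot-inoculated at about 10^4 CFU/spot from diluted overnight cultures using a multipoint inoculator. Plates were incubated at 35° C. for 18 hour (also described as 35±2° C., 16-20 hours, ambient air, or 37° C., 18 hours) and scored for growth or no growth.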

[1] = tested on: K. pneumoniae ATCC 700603
Procedure, shortened: as §1

K. pneumoniae H 521 = conditions: compound tested alone
Procedure, shortened: as §1

P. mirabilis S 137B = conditions: compound tested alone
Procedure, shortened: as §1

E. coli 13353 = conditions: compound tested alone
Procedure, shortened: as §1

E. coli 13352 = conditions: compound tested alone
Procedure, shortened: as §1

K. pneumoniae H 525 = conditions: compound tested alone
Procedure, shortened: as §1

E. coli 7 MP = conditions: compound tested alone
Procedure, shortened: as §1

E. coli M 36 = conditions: compound tested alone
Procedure, shortened: as §1

K. pneumoniae H 523 = conditions: compound tested alone
Procedure, shortened: as §1

E. coli M 50 = conditions: compound tested alone
Procedure, shortened: as §1

E. coli H 483 = tested on: E. coli H 483
Procedure, shortened: as §1

E. coli 13351 = conditions: compound tested alone
Procedure, shortened: as §1

K. pneumoniae H 522 = conditions: compound tested alone
Procedure, shortened: as §1

E. coli M 138 = conditions: compound tested alone
Procedure, shortened: as §1

[2] = Escherichia coli, M49, E. coli M 49, read-out: MIC
[3] = Klebsiella pneumoniae, ATCC700603, compound tested alone, read-out: MIC
[4] = Klebsiella pneumoniae, H521, K. pneumoniae H 521, read-out: MIC
[5] = Proteus mirabilis, S137B, read-out: MIC
[6] = Escherichia coli, 13353, E. coli 13353, read-out: MIC
[7] = Escherichia coli, 13352, E. coli 13352, read-out: MIC
[8] = Klebsiella pneumoniae, H525, K. pneumoniae H 525, read-out: MIC
[9] = Escherichia coli, 7MP, read-out: MIC
[10] = Escherichia coli, M36, E. coli M 36, read-out: MIC
[11] = Klebsiella pneumoniae, H523, K. pneumoniae H 523, read-out: MIC
[12] = Escherichia coli, M50, E. coli M 50, read-out: MIC
[13] = Escherichia coli, H483, compound tested alone, read-out: MIC
[14] = Escherichia coli, 13351, E. coli 13351, read-out: MIC
[15] = Klebsiella pneumoniae, H522, K. pneumoniae H 522, read-out: MIC
[16] = Escherichia coli, M138, E. coli M 138, read-out: MIC

Compound	MIC (E. coli M 49; [2])	MIC [1, 3]	MIC (K. pneumoniae H 521; [4])	MIC (P. mirabilis S 137B; [5])	MIC (E. coli 13353; [6])	MIC (E. coli 13352; [7])	MIC (K. pneumoniae H 525; [8])	MIC (E. coli 7 MP; [9])	MIC (E. coli M 36; [10])	MIC (K. pneumoniae H 523; [11])	MIC (E. coli M 50; [12])	MIC (E. coli H 483; [13])	MIC (E. coli 13351; [14])	MIC (K. pneumoniae H 522; [15])	MIC (E. coli M 138; [16])	also measured
O=C(NOC[C@H]1C[C@H](n2nccn2)CN1)[C@@H]1CC[C@@H]2CN1C(=O)N2OS(=O)(=O)O [Example 13]	8 µg/mL	> 32 µg/mL	2 µg/mL	> 32 µg/mL	1 µg/mL	2 µg/mL	2 µg/mL	4 µg/mL	1 µg/mL	2 µg/mL	2 µg/mL	> 32 µg/mL	2 µg/mL	2 µg/mL	1 µg/mL	–
CC(C)(O/N=C(\C(=O)N[C@@H]1C(=O)N2C(C(=O)[O-])=C(C[n+]3ccccc3)CS[C@H]12)c1csc(N)n1)C(=O)O [Ceftazidime, reference compound]	–	–	–	–	–	–	–	–	–	–	–	–	–	–	–	MIC (E. coli M 49; E. coli M 49): >32 µg/mL; MIC ([1]; compound tested alone): 16 µg/mL; MIC (K. pneumoniae H 521; K. pneumoniae H 521): >32 µg/mL; MIC (P. mirabilis S 137B): >32 µg/mL; MIC (E. coli 13353; E. coli 13353): >32 µg/mL; MIC (E. coli 13352; E. coli 13352): >32 µg/mL; MIC (K. pneumoniae H 525; K. pneumoniae H 525): >32 µg/mL; MIC (E. coli 7 MP): >32 µg/mL; MIC (E. coli M 36; E. coli M 36): >32 µg/mL; MIC (K. pneumoniae H 523; K. pneumoniae H 523): >32 µg/mL; MIC (E. coli M 50; E. coli M 50): >32 µg/mL; MIC (E. coli H 483; compound tested alone): >32 µg/mL; MIC (E. coli 13351; E. coli 13351): 16 µg/mL; MIC (K. pneumoniae H 522; K. pneumoniae H 522): >32 µg/mL; MIC (E. coli M 138; E. coli M 138): >32 µg/mL
O=C(NOC[C@@H]1C[C@H](n2cnnn2)CN1)[C@@H]1CC[C@@H]2CN1C(=O)N2OS(=O)(=O)O [Example 4]	8 µg/mL	> 32 µg/mL	4 µg/mL	> 32 µg/mL	2 µg/mL	2 µg/mL	4 µg/mL	4 µg/mL	2 µg/mL	4 µg/mL	2 µg/mL	> 32 µg/mL	4 µg/mL	4 µg/mL	2 µg/mL	–
O=C(NOC[C@@H]1C[C@H](n2ccnc2)CN1)[C@@H]1CC[C@@H]2CN1C(=O)N2OS(=O)(=O)O [Example 10]	4 µg/mL	> 32 µg/mL	2 µg/mL	> 32 µg/mL	1 µg/mL	2 µg/mL	2 µg/mL	4 µg/mL	1 µg/mL	2 µg/mL	1 µg/mL	> 32 µg/mL	2 µg/mL	2 µg/mL	1 µg/mL	–
O=C(NOC[C@H]1C[C@H](n2ncnn2)CN1)[C@@H]1CC[C@@H]2CN1C(=O)N2OS(=O)(=O)O [Example 11]	16 µg/mL	> 32 µg/mL	4 µg/mL	> 32 µg/mL	2 µg/mL	2 µg/mL	2 µg/mL	8 µg/mL	2 µg/mL	4 µg/mL	2 µg/mL	> 32 µg/mL	4 µg/mL	4 µg/mL	2 µg/mL	–
O=C(NOC[C@H]1C[C@H](n2cnnn2)CN1)[C@@H]1CC[C@@H]2CN1C(=O)N2OS(=O)(=O)O [Example 12]	16 µg/mL	> 32 µg/mL	4 µg/mL	> 32 µg/mL	2 µg/mL	2 µg/mL	4 µg/mL	8 µg/mL	2 µg/mL	4 µg/mL	2 µg/mL	> 32 µg/mL	4 µg/mL	4 µg/mL	2 µg/mL	–
O=C(NNC(=O)[C@@H]1CC[C@@H]2CN1C(=O)N2OS(=O)(=O)O)[C@@H]1C[C@@H](n2cccn2)CN1 [Example 32]	–	–	–	–	–	–	–	–	–	–	–	–	–	–	–	MIC (E. coli M 49; E. coli M 49): 32 µg/mL; MIC ([1]; compound tested alone): >32 µg/mL; MIC (K. pneumoniae H 521; K. pneumoniae H 521): 8 µg/mL; MIC (P. mirabilis S 137B): >32 µg/mL; MIC (E. coli 13353; E. coli 13353): 4 µg/mL; MIC (E. coli 13352; E. coli 13352): 4 µg/mL; MIC (K. pneumoniae H 525; K. pneumoniae H 525): 8 µg/mL; MIC (E. coli 7 MP): 16 µg/mL; MIC (E. coli M 36; E. coli M 36): 4 µg/mL; MIC (K. pneumoniae H 523; K. pneumoniae H 523): 8 µg/mL; MIC (E. coli M 50; E. coli M 50): 4 µg/mL; MIC (E. coli 13351; E. coli 13351): 4 µg/mL; MIC (K. pneumoniae H 522; K. pneumoniae H 522): 8 µg/mL; MIC (E. coli M 138; E. coli M 138): 4 µg/mL

The next lines start with results.

MIC (E. coli M 49; [2])	MIC [1, 3]	MIC (K. pneumoniae H 521; [4])	MIC (P. mirabilis S 137B; [5])	MIC (E. coli 13353; [6])	MIC (E. coli 13352; [7])	MIC (K. pneumoniae H 525; [8])	MIC (E. coli 7 MP; [9])	MIC (E. coli M 36; [10])	MIC (K. pneumoniae H 523; [11])	MIC (E. coli M 50; [12])	MIC (E. coli H 483; [13])	MIC (E. coli 13351; [14])	MIC (K. pneumoniae H 522; [15])	MIC (E. coli M 138; [16])	Compound	also measured
8 µg/mL	> 32 µg/mL	4 µg/mL	> 32 µg/mL	2 µg/mL	4 µg/mL	4 µg/mL	4 µg/mL	2 µg/mL	4 µg/mL	2 µg/mL	> 32 µg/mL	4 µg/mL	4 µg/mL	2 µg/mL	O=C(NOC[C@H]1C[C@H](n2ccnn2)CN1)[C@@H]1CC[C@@H]2CN1C(=O)N2OS(=O)(=O)O [Example 14]	–
8 µg/mL	> 32 µg/mL	4 µg/mL	> 32 µg/mL	2 µg/mL	2 µg/mL	4 µg/mL	8 µg/mL	2 µg/mL	4 µg/mL	2 µg/mL	> 32 µg/mL	2 µg/mL	4 µg/mL	2 µg/mL	Nc1cn([C@@H]2CN[C@H](CONC(=O)[C@@H]3CC[C@@H]4CN3C(=O)N4OS(=O)(=O)O)C2)cn1 [Example 16]	–
